In publication PMC7483467, “A small molecular compound CC1007 induces cross-lineage differentiation by inhibiting HDAC7 expression and HDAC7/MEF2C interaction in BCR-ABL1^− pre-B-ALL” (Cell Death & Disease, 2020):

Target: T1, MEF2C (Homo sapiens, UniProt Q06413)
T1 construct: endogenous intracellular protein in Nalm-6 and primary pre-B-ALL cells; untagged; detected by western blot
Test: cellular thermal shift assay (CETSA and ITDRF-CETSA), western blot read-out
Assay type: cell-based
Details: Nalm-6 and primary BCR-ABL1- pre-B-ALL cells; dose-response at 52 °C; endogenous MEF2C

T1 sequence (Q06413 whole entry): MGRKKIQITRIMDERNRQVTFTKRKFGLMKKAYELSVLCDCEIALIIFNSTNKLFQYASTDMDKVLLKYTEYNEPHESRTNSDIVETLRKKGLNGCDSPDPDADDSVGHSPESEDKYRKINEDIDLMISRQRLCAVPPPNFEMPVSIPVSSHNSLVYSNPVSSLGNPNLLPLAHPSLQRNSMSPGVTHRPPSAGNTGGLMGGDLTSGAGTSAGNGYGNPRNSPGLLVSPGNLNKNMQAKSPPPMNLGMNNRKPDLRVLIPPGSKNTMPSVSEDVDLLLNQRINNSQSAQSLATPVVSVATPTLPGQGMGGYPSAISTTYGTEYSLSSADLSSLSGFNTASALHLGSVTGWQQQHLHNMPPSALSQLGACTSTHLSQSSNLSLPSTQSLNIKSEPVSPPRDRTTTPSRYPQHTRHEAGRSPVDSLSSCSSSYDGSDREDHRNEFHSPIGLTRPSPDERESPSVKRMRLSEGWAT

With `Nc1ccccc1NC(=O)CCCCCC(=O)Nc1cccc(Br)c1` [CC1007] the “thermal stabilisation (CETSA)” value was “These data indicate that CC1007 directly interacts with intracellular MEF2C”.
